{"source": "patent US20120059011A1", "about": "“PHARMACEUTICAL COMPOSITIONS OF COMBINATIONS OF DIPEPTIDYL PEPTIDASE-4 INHIBITORS WITH PIOGLITAZONE” (priority 2009, published 2012)", "experiment": "chemical stability of pioglitazone HCl with lubricants (disproportionation to free base)", "type": "physicochemical", "details": "in contact with lubricants, such as magnesium stearate and sodium stearyl fumarate", "method": "The pharmaceutical compositions of the present invention are prepared by wet processing methods. In one embodiment the pharmaceutical compositions are prepared by wet granulation methods, such as fluid bed granulation or high-shear granulation. In a class of this embodiment, the pharmaceutical compositions are prepared by fluid-bed granulation. Fluid bed granulation processing has the advantage of affording tablets with higher diametric strength. Further, wet processing methods utilizing an intragranular portion containing Sitagliptin phosphate monohydrate, Pioglitazone HCl, a binding agent, and optionally a disintegrant, enhance the chemical stability of Sitagliptin phosphate monohydrate and pioglitazone HCl. […] The fluid bed granulation method utilizing an intragranular portion containing Pioglitazone HCl, Sitagliptin phosphate monohydrate, a binding agent, and optionally a disintegrant, minimizes the disproportionation of Pioglitazone HCl to the pioglitazone free base.", "note": "Where a name gives a salt, the structure may show the parent alone."}
{"smiles": "CCc1ccc(CCOc2ccc(CC3SC(=O)NC3=O)cc2)nc1", "note": "(racemic) [Pioglitazone HCl, [(±)-5-[[4-[2-(5-ethyl-2-pyridinyl)ethoxy]phenyl]-methyl]-2,4-]thiazolidinedione monohydrochloride]", "values": [{"measurement": "disproportionation of Pioglitazone HCl to the Pioglitazone free base", "result": "react with lubricants"}]}
